4 molecules from US5767085A, “Compounds with growth hormone releasing properties” (Novo Nordisk A/S, priority 1993, dated 1998) can be followed below.

Where a SMILES comes first, the peptide text is derived from it. [ ]: non-standard residue; d: D form. d1Nal = N[C@H](Cc1cccc2ccccc12)C(=O)O; d2Nal = N[C@H](Cc1ccc2ccccc2c1)C(=O)O; Aib = CC(C)(N)C(=O)O

In the experiment the test system is rat pituitary cells. Kind of experiment: In-vitro GH release assay using rat pituitary cells (rGH measured by SPA). Format: cell-based. Conditions: GH secretion from cultured male rat anterior pituitary cells, 15 min stimulation. Here is the method:
An in-vitro assay using rat pituitary cells was established to study the effect of different GH secretagogues. The mixed pituitary cell culture was isolated from the anterior pituitary of male rats and cultured for 3 days. After washing the cells were stimulated for 15 min and the amount of GH secreted measured in the culture supernatant. The isolation of rat pituitary cells was a modification of 0. Sartor et al., Endocrinolog 116, 1985, pp. 952-957. Pituitaries were discharged from 250 g male Sprague-Dawley rats after decapitation. The neurointermediate lobes were removed and the remainder was placed in Grey's medium supplemented with 0.25% glucose, 2× non essential amino acid and 1% BSA (isolation buffer). The glands were cut into small pieces and transferred to a flask containing 3 ml isolation buffer+11.5 mg trypsin and 1000 μg DNase and incubated for 35 min at 37° C., 95% ° 2 and 70 rotations per min. The fragments were washed 3 times by sedimentation in isolation buffer and aspirated into single cells by using a pasteur pipet. After dispersion the cells were filtered though a nylon filter (160 jum) to remove undigested tissue. The cells were washed 3 times with isolation buffer supplemented with trypsin inhibitor (0.75 mg/ml) and resuspended in culture medium (DMEM supplemented with 25 mM HEPES, 4mM Glutamine, 0.75% sodium bicarbonate, 2.5% FCS, 3% horse serum, 10% rat serum, 1 nM T3 and 40 gg/L dexamethasone) to a density of 2×10^5 cells/ml. The cells were seeded into microtiter plates, 200 μl/well and cultured for 3 days at 37° C.and 8% CO2. Following the culture period the cells were washed twice with stimulation buffer (HBSS supplemented with 1% BSA, 0.25% D-glucose and 25 mM HEPES) and preincubated for 1 hour. The buffer was then removed and new stimulation buffer containing the peptide was added and the plates were incubated for 15 min at 37° C.and 5% CO2. The medium was collected and analyzed for rat growth hormone (rGH) content in a scintillation proximity assay (SPA) as follows (SPA, essentially as described in U.S. Pat. No. 4,568,649, Hart and […], Mol.Immunol. 16, 1979, pp. 265-269, or Udenfriend et al., Proc.Natl.Acad.Sci. USA 82, 1985, pp. 8672-8676). The rGH assay was performed in OptiPlates (96-well plates) suitable for direct counting in a […] TopCount (β-scintillation counter). Assay Protocol: 40 μl buffer 10 μl sample (incubated stimulation buffer) […] 50 μl rabbit anti-rGH 50 μl SPA reagent (anti-rabbit antibody) The plates are sealed and placed on a plate shaker for 30 minutes followed by 10 hours of incubation and settling at 10-15° C.and counting. In the SPA, rGH bound to an anti-GH rabbit antibody (primary antibody) is reacted with a second antibody bound to fluomicrospheres (SPA Type II RIA available from Amersham). Any radiolabelled rGH which is bound to the primary antibody will be immobilized on the fluomicrospheres which will then produce light. Measurement in a β-scintillation counter makes it possible to calculate the amount of radiolabelled rGH. The amount of radiolabelled rGH bound to the fluomicrospheres decreases with an increasing content of rGH in the sample.

A word on the EC50: it is the concentration at which the effect is half-maximal. A higher EC50 goes with a less potent agent. With `C[C@H](N)C(=O)N[C@@H](Cc1ccccc1)C(=O)N[C@H](Cc1ccc2ccccc2c1)C(=O)N[C@H](Cc1ccccc1)C(=O)N[C@@H](CCCCN)C(N)=O` [Example 10, H--Ala--Phe--D-2Nal-D--Phe--Lys--NH2] (H-AF[d2Nal][dF]K-NH2), the concentration for a half-maximal effect (EC50) was determined as 2 nM and the “Emax (% of GHRP-6)” value is reported as 90 % of GHRP-6.
For `C[C@H](N)C(=O)N[C@@H](Cc1c[nH]cn1)C(=O)N[C@H](Cc1cccc2ccccc12)C(=O)N[C@H](Cc1ccccc1)C(=O)N[C@@H](CCCCN)C(N)=O` [Example 51, H--Ala--His--D-1Nal-D--Phe--Lys--NH2] (H-AH[d1Nal][dF]K-NH2) the same measures were 10 nM and 85 % of GHRP-6.
Take `CC(C)(N)C(=O)N[C@@H](Cc1ccccc1)C(=O)N[C@H](Cc1ccc2ccccc2c1)C(=O)N[C@H](Cc1ccccc1)C(=O)N[C@@H](CCCCN)C(N)=O` [Example 83, H--Aib--Phe--D-2Nal-D--Phe--Lys--NH2] (H-[Aib]F[d2Nal][dF]K-NH2): the concentration for a half-maximal effect (EC50) turned out to be 8 nM and the “Emax (% of GHRP-6)” value is reported as 75 % of GHRP-6.
With `C[C@H](NC(=O)[C@@H](Cc1ccccc1)NC(=O)[C@@H](Cc1ccc2ccccc2c1)NC(=O)[C@H](Cc1c[nH]cn1)NC(=O)C(C)(C)N)C(N)=O` [Example 88, H--Aib--His--D-2Nal-D--Phe--Ala--NH2] (H-[Aib]H[d2Nal][dF]A-NH2), a half-maximal response (EC50) required 11 nM and the “Emax (% of GHRP-6)” value is 80 % of GHRP-6.
